Experimental data published in PubChem BioAssay (NCI).
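Cells were grown in 96-well plates and exposed to each compound for 48 hours at five concentrations; endpoints were interpolated linearly between bracketing concentrations, or set to the highest concentration if not reached. TGI denotes the concentration required for complete inhibition of growth.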

Experiments:
Assay in all cases: NCI-60 cell line screen, 48 h
[1] = system: SK-MEL-28 melanoma
[2] = system: T-47D breast
[3] = system: HT29 colon
[4] = system: MDA-MB-435
[5] = system: 786-0 renal
[6] = system: SF-539 CNS
[7] = system: DU-145 prostate
[8] = system: NCI/ADR-RES ovarian
[9] = system: ACHN renal
[10] = system: NCI-H23 lung
[11] = system: OVCAR-8 ovarian
[12] = system: COLO 205 colon
[13] = system: SK-MEL-2 melanoma
[14] = system: MCF7 breast
[15] = system: SN12C renal
[16] = system: HCT-15 colon
[17] = system: CCRF-CEM leukemia

Row | Compound | TGI [1] [µM] | TGI [2] [µM] | TGI [3] [µM] | TGI [4] [µM] | TGI [5] [µM] | TGI [6] [µM] | TGI [7] [µM] | TGI [8] [µM] | TGI [9] [µM] | TGI [10] [µM] | TGI [11] [µM] | TGI [12] [µM] | TGI [13] [µM] | TGI [14] [µM] | TGI [15] [µM] | TGI [16] [µM] | TGI [17] [µM]
1 | CC(C)=C=CC(C)(C)NS(=O)(=O)NC(C)(C)C=C=C(C)C | > 100 | > 100 | > 100 | > 100 | > 100 | > 100 | > 100 | > 100 | > 100 | > 100 | > 100 | > 100 | > 100 | > 100 | > 100 | > 100 | –
2 | CCO/N=C(/CC)c1ccc(Br)s1 | > 100 | > 100 | > 100 | > 100 | > 100 | > 100 | > 100 | > 100 | > 100 | > 100 | > 100 | > 100 | > 100 | > 100 | > 100 | > 100 | > 100
3 | O=C(N1CCN(c2ccccc2)CC1)N(C(=O)C1(c2ccc(Cl)cc2)CCCC1)S(=O)(=O)c1ccccc1 | > 100 | > 100 | 75.8 | > 100 | > 100 | 49.7 | > 100 | 70.8 | 45.6 | 69.1 | 89.4 | 60.3 | 38.9 | 74.9 | 94.6 | 80.1 | > 100
4 | CC(C)C(=O)CP(=O)(O)O | > 100 | > 100 | > 100 | > 100 | > 100 | > 100 | > 100 | > 100 | > 100 | > 100 | > 100 | > 100 | > 100 | > 100 | > 100 | > 100 | > 100
5 | Cc1cn(C2CC(O)C(Cn3nncc3Cn3ccc(=O)[nH]c3=O)O2)c(=O)[nH]c1=O (configuration not stated) | > 100 | > 100 | > 100 | > 100 | > 100 | > 100 | > 100 | > 100 | > 100 | > 100 | > 100 | > 100 | > 100 | > 100 | > 100 | > 100 | > 100
6 | COc1cc(N(CCC#N)CCC#N)ccc1/C(N=Nc1cccc(C)c1)=N\NC(=O)c1ccc(C)cc1 | > 100 | > 100 | > 100 | > 100 | > 100 | – | > 100 | > 100 | 63 | > 100 | > 100 | > 100 | > 100 | > 100 | > 100 | > 100 | > 100
7 | CCN(CC)c1ccc2cc(-c3csc(-c4ccc(N(C)C)cc4)n3)c(=O)oc2c1 | > 100 | > 100 | > 100 | > 100 | > 100 | > 100 | > 100 | > 100 | > 100 | – | > 100 | > 100 | > 100 | > 100 | > 100 | > 100 | > 100
8 | CC(C)(C)OC(=O)CC(NC(=O)OC(C)(C)C)C(=O)Oc1ccc([N+](=O)[O-])cc1 (configuration not stated) | > 100 | > 100 | > 100 | > 100 | > 100 | > 100 | > 100 | > 100 | > 100 | > 100 | > 100 | > 100 | > 100 | > 100 | > 100 | > 100 | > 100
9 | NC1=CN(Cc2ccccc2)C2=N/C(=C\c3ccco3)C(=O)N12 | > 100 | > 100 | > 100 | > 100 | > 100 | > 100 | > 100 | > 100 | > 100 | > 100 | > 100 | > 100 | > 100 | > 100 | > 100 | > 100 | > 100
10 | COC(=O)c1ccccc1Nc1ccccc1C(=O)OC | > 100 | > 100 | > 100 | > 100 | > 100 | > 100 | > 100 | > 100 | > 100 | > 100 | > 100 | > 100 | > 100 | > 100 | > 100 | > 100 | > 100
11 | N#CCCN(CCC#N)c1ccc(/C=C2\N=C(c3ccccc3)N(c3ccccc3)C2=O)cc1 | > 100 | > 100 | > 100 | > 100 | > 100 | > 100 | > 100 | > 100 | > 100 | – | > 100 | > 100 | > 100 | > 100 | > 100 | > 100 | > 100
12 | COC(=O)c1c(OC(C)=O)ccc2c1c1cc3ccccc3c(OC(C)=O)c1n2C | > 100 | 39.8 | 69.1 | > 100 | 43.2 | 91.1 | 44.6 | > 100 | 89.4 | > 100 | > 100 | 69.8 | > 100 | > 100 | > 100 | > 100 | > 100
13 | CCCNC(=O)c1cc(NC(=O)c2cc(NC(=O)CCS(=O)(=O)OC)cn2C)cn1C | > 100 | 42.1 | > 56.9 | 68.8 | > 71.7 | – | 72.2 | > 100 | > 100 | 40.7 | 30.3 | 22.7 | 53.8 | > 100 | 29.7 | > 100 | 3.67
14 | NNC(=O)CSc1nnc(CCCCCCCCc2nnc(SCC(=O)NN)o2)o1 | > 100 | > 100 | > 100 | > 100 | > 100 | – | > 100 | > 100 | > 100 | > 100 | > 100 | > 100 | > 100 | > 100 | > 100 | > 100 | > 100
